Experiments:
[1] = target: T1, GNMT (glycine N-methyltransferase) (Homo sapiens, UniProt Q14749); assay: Inhibition of human GNMT expressed in Escherichia coli at 10 uM assessed as reduction in SAH level using glycine as substrate in presence of SAM incubated for 30 mins by LC-MS/MS analysis relative to control; details: recombinant human GNMT expressed in Escherichia coli, probe glycine
T1 sequence (Q14749 whole entry): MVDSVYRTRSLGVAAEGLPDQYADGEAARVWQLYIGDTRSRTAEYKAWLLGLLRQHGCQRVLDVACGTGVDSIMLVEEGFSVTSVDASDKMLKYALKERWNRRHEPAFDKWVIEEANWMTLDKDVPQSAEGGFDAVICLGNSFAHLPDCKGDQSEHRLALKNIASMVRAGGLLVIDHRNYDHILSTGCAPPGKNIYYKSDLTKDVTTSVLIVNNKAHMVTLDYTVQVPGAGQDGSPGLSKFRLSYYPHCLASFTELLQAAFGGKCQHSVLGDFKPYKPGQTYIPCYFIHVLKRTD

[2] = target: INMT (indolethylamine N-methyltransferase) (Homo sapiens, UniProt O95050); assay: Inhibition of wild type human INMT expressed in Escherichia coli at 1 uM using tryptamine as substrate in presence of SAM incubated for 30 mins by MTase-Glo assay relative to control; details: probe tryptamine
Sequence of INMT (indolethylamine N-methyltransferase) (O95050 whole entry): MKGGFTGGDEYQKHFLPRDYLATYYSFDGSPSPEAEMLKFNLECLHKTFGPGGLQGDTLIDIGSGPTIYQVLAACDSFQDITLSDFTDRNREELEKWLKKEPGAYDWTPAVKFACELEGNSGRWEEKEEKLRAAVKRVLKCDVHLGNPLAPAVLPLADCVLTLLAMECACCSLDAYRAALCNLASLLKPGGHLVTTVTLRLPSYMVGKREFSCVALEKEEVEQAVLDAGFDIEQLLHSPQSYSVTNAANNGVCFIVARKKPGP

[3] = target: Histone-lysine N-methyltransferase ASH1L (Homo sapiens, UniProt Q9NR48); assay: Inhibition of human ASH1L expressed in Escherichia coli assessed as reduction in methylated polynucleosome level using polynucleosome as substrate in presence of [3H] SAM incubated for 15 mins by scintillation counting
[4] = target: Histone-lysine N-methyltransferase, H3 lysine-79 specific (Homo sapiens, UniProt Q8TEK3); assay: Inhibition of human DOT1L expressed in Escherichia coli assessed as reduction in methylated polynucleosome level using polynucleosome as substrate in presence of [3H] SAM incubated for 15 mins by scintillation counting
Sequence of Histone-lysine N-methyltransferase, H3 lysine-79 specific (Q8TEK3 whole entry): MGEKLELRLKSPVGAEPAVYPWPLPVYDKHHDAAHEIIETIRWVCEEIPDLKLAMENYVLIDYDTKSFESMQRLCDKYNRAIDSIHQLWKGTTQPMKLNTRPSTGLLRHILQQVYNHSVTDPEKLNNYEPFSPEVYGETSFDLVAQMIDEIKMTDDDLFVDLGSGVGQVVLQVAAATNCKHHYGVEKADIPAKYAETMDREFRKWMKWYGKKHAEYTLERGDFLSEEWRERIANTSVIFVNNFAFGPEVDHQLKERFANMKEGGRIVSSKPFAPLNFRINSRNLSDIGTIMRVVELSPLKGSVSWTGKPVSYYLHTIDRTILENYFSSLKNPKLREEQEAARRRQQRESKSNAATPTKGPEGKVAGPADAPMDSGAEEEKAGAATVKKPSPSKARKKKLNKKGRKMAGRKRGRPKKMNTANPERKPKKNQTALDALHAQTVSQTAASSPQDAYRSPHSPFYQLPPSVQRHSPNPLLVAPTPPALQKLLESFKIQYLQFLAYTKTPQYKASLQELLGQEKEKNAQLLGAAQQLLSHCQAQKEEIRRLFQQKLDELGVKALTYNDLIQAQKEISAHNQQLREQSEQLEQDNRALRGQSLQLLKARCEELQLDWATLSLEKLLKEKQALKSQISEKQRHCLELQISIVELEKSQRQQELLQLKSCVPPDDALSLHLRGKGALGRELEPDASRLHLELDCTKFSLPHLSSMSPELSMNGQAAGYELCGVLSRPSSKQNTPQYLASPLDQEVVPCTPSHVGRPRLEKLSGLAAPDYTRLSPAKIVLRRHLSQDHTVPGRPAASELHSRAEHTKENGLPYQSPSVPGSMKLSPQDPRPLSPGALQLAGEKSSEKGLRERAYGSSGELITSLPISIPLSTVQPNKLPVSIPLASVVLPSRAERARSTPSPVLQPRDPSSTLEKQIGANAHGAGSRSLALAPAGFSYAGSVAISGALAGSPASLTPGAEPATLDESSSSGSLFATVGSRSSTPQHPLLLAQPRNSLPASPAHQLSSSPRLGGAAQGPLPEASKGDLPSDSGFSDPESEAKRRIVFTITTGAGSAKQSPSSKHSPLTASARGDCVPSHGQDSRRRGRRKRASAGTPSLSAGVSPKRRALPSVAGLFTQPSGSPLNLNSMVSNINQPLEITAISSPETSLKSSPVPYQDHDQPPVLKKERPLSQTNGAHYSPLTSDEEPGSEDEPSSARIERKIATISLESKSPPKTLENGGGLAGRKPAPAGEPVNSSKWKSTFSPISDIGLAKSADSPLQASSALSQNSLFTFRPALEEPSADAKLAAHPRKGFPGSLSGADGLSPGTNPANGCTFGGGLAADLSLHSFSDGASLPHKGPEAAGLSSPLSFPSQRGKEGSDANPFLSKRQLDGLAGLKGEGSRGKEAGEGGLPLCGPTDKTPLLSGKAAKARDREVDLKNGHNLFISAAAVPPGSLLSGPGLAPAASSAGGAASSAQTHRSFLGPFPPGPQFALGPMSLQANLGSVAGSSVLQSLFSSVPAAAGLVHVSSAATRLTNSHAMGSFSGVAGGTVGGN

[5] = target: T2, Histone-lysine N-methyltransferase EHMT1 (Homo sapiens, UniProt Q9H9B1); assay: Inhibition of human EHMT1 expressed in Escherichia coli assessed as reduction in methylated histone H3 full length using histone H3 full length as substrate in presence of [3H] SAM incubated for 120 mins by scintillation counting
T2 sequence (Q9H9B1 whole entry): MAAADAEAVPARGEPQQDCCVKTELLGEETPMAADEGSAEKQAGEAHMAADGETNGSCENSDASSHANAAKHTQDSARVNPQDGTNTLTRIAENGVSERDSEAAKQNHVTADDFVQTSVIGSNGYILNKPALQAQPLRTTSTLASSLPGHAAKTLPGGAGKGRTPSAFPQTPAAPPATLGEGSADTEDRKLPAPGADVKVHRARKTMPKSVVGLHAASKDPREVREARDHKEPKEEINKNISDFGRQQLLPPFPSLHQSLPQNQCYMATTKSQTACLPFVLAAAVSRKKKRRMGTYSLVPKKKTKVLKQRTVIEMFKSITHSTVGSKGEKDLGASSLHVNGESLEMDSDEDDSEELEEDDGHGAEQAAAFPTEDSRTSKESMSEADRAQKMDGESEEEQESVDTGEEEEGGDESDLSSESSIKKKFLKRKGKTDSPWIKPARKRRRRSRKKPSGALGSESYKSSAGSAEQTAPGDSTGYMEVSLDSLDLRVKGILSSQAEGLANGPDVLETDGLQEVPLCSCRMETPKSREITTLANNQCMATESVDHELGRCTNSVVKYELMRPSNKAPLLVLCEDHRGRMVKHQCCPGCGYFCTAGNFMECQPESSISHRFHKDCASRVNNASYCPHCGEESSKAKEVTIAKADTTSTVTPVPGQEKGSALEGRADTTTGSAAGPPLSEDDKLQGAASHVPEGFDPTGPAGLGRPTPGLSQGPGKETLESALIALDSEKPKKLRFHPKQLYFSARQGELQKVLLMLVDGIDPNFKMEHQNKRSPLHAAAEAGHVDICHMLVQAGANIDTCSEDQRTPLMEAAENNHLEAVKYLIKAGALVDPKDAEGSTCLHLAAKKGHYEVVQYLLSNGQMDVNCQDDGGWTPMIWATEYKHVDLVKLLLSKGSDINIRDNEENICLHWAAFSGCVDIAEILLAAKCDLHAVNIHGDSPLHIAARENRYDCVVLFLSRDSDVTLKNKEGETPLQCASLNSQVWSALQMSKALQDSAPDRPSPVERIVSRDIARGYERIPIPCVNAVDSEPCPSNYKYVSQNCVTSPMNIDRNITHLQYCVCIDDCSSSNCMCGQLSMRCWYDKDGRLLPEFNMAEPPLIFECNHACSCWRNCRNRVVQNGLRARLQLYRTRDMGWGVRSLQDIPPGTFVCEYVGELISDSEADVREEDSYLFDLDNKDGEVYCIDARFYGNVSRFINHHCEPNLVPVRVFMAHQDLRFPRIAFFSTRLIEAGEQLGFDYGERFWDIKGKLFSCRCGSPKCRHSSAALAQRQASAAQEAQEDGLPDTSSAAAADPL

[6] = target: Histone-lysine N-methyltransferase SETDB1 (Homo sapiens, UniProt Q15047); assay: Inhibition of human SETDB1 expressed in sf9 insect cells assessed as reduction in methylated histone H3 full length level using histone H3 full length as substrate in presence of [3H] SAM incubated for 30 mins by scintillation counting
[7] = target: T3, Thiopurine S-methyltransferase (Homo sapiens, UniProt P51580); assay: Inhibition of human TPMT expressed in Escherichia coli assessed as reduction in SAH level using 6-mercaptopurine as substrate in presence of SAM incubated for 30 mins by LC-MS/MS analysis
T3 sequence (P51580 whole entry): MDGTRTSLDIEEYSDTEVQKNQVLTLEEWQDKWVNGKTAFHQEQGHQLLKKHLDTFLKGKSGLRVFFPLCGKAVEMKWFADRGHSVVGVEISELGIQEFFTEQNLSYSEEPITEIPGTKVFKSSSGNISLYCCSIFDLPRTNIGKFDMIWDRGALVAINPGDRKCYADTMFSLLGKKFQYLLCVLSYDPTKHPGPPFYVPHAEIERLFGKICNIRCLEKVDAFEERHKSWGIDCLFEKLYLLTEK

U2OS = assay: Cytotoxicity against human U2OS cells at 100 uM after 48 hrs by CellTiter-Glo luminescent cell viability; format: cell-based

SMILES: NC(=O)c1cccc(C#C[C@@H](CC[C@H](N)C(=O)O)C[C@H]2O[C@@H](n3cnc4c(N)ncnc43)[C@H](O)[C@@H]2O)c1
- inhibition at 0.5 h, 10 µM [1]: 23%
- inhibition at 0.5 h, 1 µM [2]: 14%
- IC50 [3]: > 10 µM
- IC50 [4]: > 10 µM
- IC50 [5]: > 10 µM
- IC50 [6]: > 10 µM
- IC50 [7]: 1 µM
- Activity (U2OS): Non-Toxic
